Measurements taken from PubChem BioAssay (NCI).
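How tested: cells in 96-well plates exposed to compound for 48 hours at five concentrations. At the GI50, growth is halved. TGI: concentration producing complete growth inhibition.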

Key:
Test in all cases: NCI tumour cell line growth inhibition, 48 h
MOLT-4 leukemia = test system: MOLT-4 leukemia
PC-3 prostate = test system: PC-3 prostate
T-47D breast = test system: T-47D breast
MDA-MB-231 breast = test system: MDA-MB-231 breast
MALME-3M melanoma = test system: MALME-3M melanoma
BT-549 breast = test system: BT-549 breast
HT29 colon = test system: HT29 colon
SK-MEL-5 melanoma = test system: SK-MEL-5 melanoma
A498 renal = test system: A498 renal
DU-145 prostate = test system: DU-145 prostate
UACC-257 melanoma = test system: UACC-257 melanoma
LOX IMVI melanoma = test system: LOX IMVI melanoma
UACC-62 melanoma = test system: UACC-62 melanoma
HCT-116 colon = test system: HCT-116 colon
HOP-62 NSCLC = test system: HOP-62 NSCLC
SK-MEL-28 melanoma = test system: SK-MEL-28 melanoma
NCI-H226 lung = test system: NCI-H226 lung
K-562 leukemia = test system: K-562 leukemia
SF-295 CNS = test system: SF-295 CNS
COLO 205 colon = test system: COLO 205 colon
HOP-92 NSCLC = test system: HOP-92 NSCLC
HCC-2998 colon = test system: HCC-2998 colon
SNB-75 CNS = test system: SNB-75 CNS
RPMI-8226 leukemia = test system: RPMI-8226 leukemia
NCI/ADR-RES ovarian = test system: NCI/ADR-RES ovarian
SK-MEL-2 melanoma = test system: SK-MEL-2 melanoma
OVCAR-5 ovarian = test system: OVCAR-5 ovarian
NCI-H460 lung = test system: NCI-H460 lung
UO-31 renal = test system: UO-31 renal
SNB-19 CNS = test system: SNB-19 CNS
ACHN renal = test system: ACHN renal
MCF7 breast = test system: MCF7 breast
M14 melanoma = test system: M14 melanoma
NCI-H522 lung = test system: NCI-H522 lung
EKVX NSCLC = test system: EKVX NSCLC
OVCAR-3 ovarian = test system: OVCAR-3 ovarian
TK-10 renal = test system: TK-10 renal
OVCAR-4 ovarian = test system: OVCAR-4 ovarian
SN12C renal = test system: SN12C renal
OVCAR-8 ovarian = test system: OVCAR-8 ovarian
IGROV1 ovarian = test system: IGROV1 ovarian
SR leukemia = test system: SR leukemia
HS 578T breast = test system: HS 578T breast
HCT-15 colon = test system: HCT-15 colon
HL-60(TB) leukemia = test system: HL-60(TB) leukemia
786-0 renal = test system: 786-0 renal
KM12 colon = test system: KM12 colon
SF-539 CNS = test system: SF-539 CNS
CAKI-1 renal = test system: CAKI-1 renal
SW-620 colon = test system: SW-620 colon
CCRF-CEM leukemia = test system: CCRF-CEM leukemia
NCI-H23 lung = test system: NCI-H23 lung
MDA-MB-435 = test system: MDA-MB-435
U251 CNS = test system: U251 CNS
SK-OV-3 ovarian = test system: SK-OV-3 ovarian
A549 NSCLC = test system: A549 NSCLC
SF-268 CNS = test system: SF-268 CNS

Clc1ccc(C(Cc2ccccc2)c2c(Cl)nc(N3CCNCC3)nc2Cl)cc1 (stereo not drawn)
TGI (MOLT-4 leukemia): 15.9 µM | TGI (PC-3 prostate): 28 µM | TGI (T-47D breast): 29.6 µM | TGI (MDA-MB-231 breast): 26.9 µM | TGI (MALME-3M melanoma): 28.4 µM | TGI (BT-549 breast): 47.4 µM | TGI (HT29 colon): 6.27 µM | TGI (SK-MEL-5 melanoma): 27.8 µM | TGI (A498 renal): 24.8 µM | TGI (DU-145 prostate): 27.6 µM | TGI (UACC-257 melanoma): 34 µM | TGI (LOX IMVI melanoma): 10.6 µM | TGI (UACC-62 melanoma): 44 µM | TGI (HCT-116 colon): 20.5 µM | TGI (HOP-62 NSCLC): 30.2 µM | TGI (SK-MEL-28 melanoma): 26.6 µM | TGI (NCI-H226 lung): 40.7 µM | TGI (K-562 leukemia): 17.8 µM | TGI (SF-295 CNS): 36 µM | TGI (COLO 205 colon): 3.11 µM | TGI (HOP-92 NSCLC): 25.7 µM | TGI (HCC-2998 colon): 26 µM | TGI (SNB-75 CNS): 27.2 µM | TGI (RPMI-8226 leukemia): 33.7 µM | TGI (NCI/ADR-RES ovarian): 35 µM | TGI (SK-MEL-2 melanoma): 33.2 µM | TGI (OVCAR-5 ovarian): 32 µM | TGI (NCI-H460 lung): 30.2 µM | TGI (UO-31 renal): 27.2 µM | TGI (SNB-19 CNS): 28.6 µM | TGI (ACHN renal): 29.9 µM | TGI (MCF7 breast): 20 µM | TGI (M14 melanoma): 29.7 µM | TGI (NCI-H522 lung): 25.9 µM | TGI (EKVX NSCLC): 32.2 µM | TGI (OVCAR-3 ovarian): 28.2 µM | TGI (TK-10 renal): 34.3 µM | TGI (OVCAR-4 ovarian): 43 µM | TGI (SN12C renal): 28.8 µM | TGI (OVCAR-8 ovarian): 27.3 µM | TGI (IGROV1 ovarian): 24.2 µM | TGI (SR leukemia): 3.71 µM | TGI (HS 578T breast): 32.6 µM | TGI (HCT-15 colon): 14.5 µM | TGI (HL-60(TB) leukemia): 10.7 µM | TGI (786-0 renal): 30.1 µM | TGI (KM12 colon): 20.7 µM | TGI (SF-539 CNS): 28.8 µM | TGI (CAKI-1 renal): 18 µM | TGI (SW-620 colon): 27.7 µM | TGI (CCRF-CEM leukemia): 27.2 µM | TGI (NCI-H23 lung): 36.8 µM | TGI (MDA-MB-435): 32 µM | TGI (U251 CNS): 26.9 µM | TGI (SK-OV-3 ovarian): 33.2 µM | TGI (A549 NSCLC): 30.4 µM

CCC[n+]1cc2cc3c(cc2c2c1-c1cc4c(cc1C2)OCO4)OCO3 (tested in a mixture with another compound)
GI50 (MOLT-4 leukemia): 0.251 µM | TGI (MOLT-4 leukemia): 3.03 µM | GI50 (PC-3 prostate): 0.986 µM | TGI (PC-3 prostate): 7.16 µM | GI50 (T-47D breast): 0.267 µM | TGI (T-47D breast): 1.61 µM | GI50 (MDA-MB-231 breast): 2.39 µM | TGI (MDA-MB-231 breast): 12.1 µM | GI50 (MALME-3M melanoma): 0.29 µM | TGI (MALME-3M melanoma): 1.53 µM | GI50 (BT-549 breast): 0.312 µM | TGI (BT-549 breast): 1.82 µM | GI50 (HT29 colon): 1.41 µM | TGI (HT29 colon): 16.6 µM | GI50 (SK-MEL-5 melanoma): 0.371 µM | TGI (SK-MEL-5 melanoma): 1.6 µM | GI50 (A498 renal): 11.2 µM | TGI (A498 renal): 25.7 µM | GI50 (DU-145 prostate): 1.27 µM | TGI (DU-145 prostate): 7.73 µM | GI50 (UACC-257 melanoma): 0.706 µM | TGI (UACC-257 melanoma): 3.16 µM | GI50 (LOX IMVI melanoma): 3.22 µM | TGI (LOX IMVI melanoma): 14.3 µM | GI50 (UACC-62 melanoma): 0.465 µM | TGI (UACC-62 melanoma): 1.7 µM | GI50 (HCT-116 colon): 0.758 µM | TGI (HCT-116 colon): 11.3 µM | GI50 (HOP-62 NSCLC): 0.546 µM | TGI (HOP-62 NSCLC): 6.53 µM | GI50 (SK-MEL-28 melanoma): 0.783 µM | TGI (SK-MEL-28 melanoma): 2.49 µM | GI50 (NCI-H226 lung): 0.719 µM | TGI (NCI-H226 lung): 7.96 µM | GI50 (K-562 leukemia): 0.581 µM | TGI (K-562 leukemia): > 35 µM | GI50 (SF-295 CNS): 0.47 µM | TGI (SF-295 CNS): 6.37 µM | GI50 (COLO 205 colon): 0.49 µM | TGI (COLO 205 colon): 3.79 µM | GI50 (HOP-92 NSCLC): 0.683 µM | TGI (HOP-92 NSCLC): 4.07 µM | GI50 (HCC-2998 colon): 0.504 µM | TGI (HCC-2998 colon): 2.14 µM | GI50 (SNB-75 CNS): 0.403 µM | TGI (SNB-75 CNS): 1.38 µM | GI50 (RPMI-8226 leukemia): 0.545 µM | TGI (RPMI-8226 leukemia): 5.5 µM | GI50 (NCI/ADR-RES ovarian): > 85.5 µM | TGI (NCI/ADR-RES ovarian): > 100 µM | GI50 (SK-MEL-2 melanoma): 0.53 µM | TGI (SK-MEL-2 melanoma): 2.35 µM | GI50 (OVCAR-5 ovarian): 8.85 µM | TGI (OVCAR-5 ovarian): 29 µM | GI50 (NCI-H460 lung): 0.337 µM | TGI (NCI-H460 lung): 4.39 µM | GI50 (UO-31 renal): 3.14 µM | TGI (UO-31 renal): 33.8 µM | GI50 (SNB-19 CNS): 0.269 µM | TGI (SNB-19 CNS): 2.18 µM | GI50 (ACHN renal): 12.1 µM | TGI (ACHN renal): 51.3 µM | GI50 (MCF7 breast): 0.468 µM | TGI (MCF7 breast): 6.34 µM | GI50 (M14 melanoma): 2.49 µM | TGI (M14 melanoma): 7.81 µM | TGI (NCI-H522 lung): 2.08 µM | GI50 (SF-268 CNS): 0.0649 µM | TGI (SF-268 CNS): 1.95 µM | GI50 (EKVX NSCLC): 2.18 µM | TGI (EKVX NSCLC): 19.2 µM | GI50 (OVCAR-3 ovarian): 0.894 µM | TGI (OVCAR-3 ovarian): 4.81 µM | GI50 (TK-10 renal): 4.11 µM | TGI (TK-10 renal): 38.6 µM | GI50 (OVCAR-4 ovarian): 0.853 µM | TGI (OVCAR-4 ovarian): 5.9 µM | GI50 (SN12C renal): 0.0664 µM | TGI (SN12C renal): 0.777 µM | GI50 (OVCAR-8 ovarian): 0.575 µM | TGI (OVCAR-8 ovarian): 12.2 µM | TGI (IGROV1 ovarian): 7.81 µM | GI50 (SR leukemia): 0.287 µM | TGI (SR leukemia): 1.75 µM | GI50 (HS 578T breast): 0.437 µM | TGI (HS 578T breast): 3.53 µM | GI50 (HCT-15 colon): 28.2 µM | TGI (HCT-15 colon): > 100 µM | GI50 (HL-60(TB) leukemia): 2.98 µM | TGI (HL-60(TB) leukemia): 14.8 µM | GI50 (786-0 renal): 0.46 µM | TGI (786-0 renal): 10 µM | GI50 (KM12 colon): 0.374 µM | TGI (KM12 colon): 5.33 µM | GI50 (SF-539 CNS): 0.425 µM | TGI (SF-539 CNS): 2.88 µM | GI50 (CAKI-1 renal): 25.8 µM | TGI (CAKI-1 renal): > 91.8 µM | GI50 (SW-620 colon): 0.733 µM | TGI (SW-620 colon): 12.8 µM | GI50 (CCRF-CEM leukemia): 2.38 µM | TGI (CCRF-CEM leukemia): 15 µM | GI50 (NCI-H23 lung): 0.679 µM | TGI (NCI-H23 lung): 3.02 µM | GI50 (MDA-MB-435): 0.785 µM | TGI (MDA-MB-435): 2.29 µM | GI50 (U251 CNS): 0.229 µM | TGI (U251 CNS): 3.32 µM | GI50 (SK-OV-3 ovarian): 3.57 µM | TGI (SK-OV-3 ovarian): 16.4 µM | GI50 (A549 NSCLC): 2.77 µM | TGI (A549 NSCLC): > 52.4 µM
